Data taken from patent publication US4839374A, “4-((Bicyclic heterocyclyl)-methyl and -hetero)-piperidines” (Janssen Pharmaceutica, N.V., priority 1987, dated 1989).
Where two headings read alike, the source gives them in different places.

Legend:
effects of serotonin [1] = conditions: rats, compound 48/80; known serotonin-antagonists; cited from earlier work
effects of serotonin [2] = assay: Antagonistic activity on the effects of serotonin in the gastric lesion test (lesions induced by compound 48/80); format: in vivo, rats of a Wistar inbred strain; conditions: Rattus norvegicus, po, read-out: gastric lesion test ED50
How it was run: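 Fasted male Wistar rats (220–250 g) dosed orally with compound; 1 h later 2.5 mg/kg s.c. H1 antagonist, then compound 48/80 i.v. Stomachs examined 4 h afterwards for distension and glandular lesions (scored 0 to +++); ED50 is the oral dose (mg/kg) abolishing both in 50% of rats.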

[3] = system: compound 48/80-induced lethality; assay: Protection of rats from compound 48/80-induced lethality; format: in vivo, rats of an inbred Wistar strain; conditions: Rattus norvegicus, 4 h, read-out: Compound 48/80 lethality test in rats ED50, s.c. or p.o. 1 h before compound 48/80 0.5 mg/kg i.v.; protection of 50% of animals, survival after 4 hours
How it was run: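 Male inbred Wistar rats (240-260 g), starved overnight, dosed subcutaneously or orally with compound or 0.9% NaCl before compound 48/80 challenge. Survival at 4 hours counted as protection. ED50 in mg/kg is the dose protecting 50% of animals from lethality.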

[4] = compound 48/80 1 mg/kg i.v., distension and lesions of stomach completely absent in 50% of rats

Structure (SMILES)	prevention of cyanosis of ears and extremities, lesions in the glandular area of the stomach and abnormal gastric distension (effects of serotonin [1])	ED50 (effects of serotonin [2]; [4]) [mg/kg]	ED50 [3] [mg/kg]	ED50 (effects of serotonin [2]) [mg/kg]
CN1CCC(=C2c3ccccc3CCc3sccc32)CC1 [pizotifen]	prevent completely			
O=C(CCCN1CCC2(CC1)C(=O)NCN2c1ccccc1)c1ccc(F)cc1 [spiperone]	prevent completely			
CN(C)CCCSc1ccccc1NC(=O)/C=C/c1ccccc1 [cinanserin]	prevent completely			
CN1CCN2c3ccccc3Cc3ccccc3C2C1 (stereo not shown) [mianserin]	prevent completely			
NC(=O)C1(N2CCCCC2)CCN(CCCC(=O)c2ccc(F)cc2)CC1 [pipamperone]	prevent completely			
CN1CCC(=C2c3ccccc3C=Cc3ccccc32)CC1 [cyproheptadine]	prevent completely			
CC[C@@H](CO)NC(=O)[C@@H]1C=C2c3cccc4c3c(cn4C)C[C@H]2N(C)C1 [methysergide]	prevent completely			
CCOC(=O)c1csc(NCCN2CCC(Cc3nc4ccccc4n3Cc3ccc(F)cc3)CC2)n1 [Compound 455, ethyl 2-[(2-[4-[(1-[(4-fluorophenyl)methyl]-1H-benzimidazol-2-yl]methyl]-1-piperidinyl]ethyl]amino]-4-thiazolecarboxylate]		0.63	0.04	
Fc1ccc(Cn2c(CC3CCN(CCNc4ncccn4)CC3)nc3ccccc32)cc1 [Compound 374]		0.02	0.02	
COc1ccc(CCN2CCC(Cc3nc4ccccc4n3Cc3ccsc3)CC2)cc1 [Compound 523, 2-[[1-[2-(4-methoxyphenyl)ethyl]-4-piperidinyl]methyl]-1-(3-thienylmethyl)-1H-benzimidazole]		0.31	0.04	
Oc1nc2cncnc2n1CCN1CCC(Cc2nc3ccccc3n2Cc2ccc(F)cc2)CC1 [Compound 502, 9-[2-[4-[[1-[(4-fluorophenyl)methyl]-1H-benzimidazol-2-yl]methyl]-1-piperidinyl]ethyl]-9H-purin-8-ol]		0.16	0.08	
Nc1ccccc1C(=O)NCCN1CCC(Cc2nc3ccccc3n2Cc2cccs2)CC1 [Compound 478, 2-amino-N-[2-[4-[[1-(2-thienylmethyl)-1H-benzimidazol-2-yl]methyl]-1-piperidinyl]ethyl]benzamide]			0.02	0.04
Fc1ccc(Cn2c(CC3CCN(CCNc4ncc[nH]4)CC3)nc3ccccc32)cc1 [Compound 453, 4-[[1-[(4-fluorophenyl)methyl]-1H-benzimidazol-2-yl]methyl]-N-(1H-imidazol-2-yl)-1-piperidineethanamine]		0.02	0.04	
O=c1[nH]c2ccccc2c(=O)n1CCCCN1CCC(Cc2nc3ccccc3n2Cc2ccc(F)cc2)CC1 [Compound 489, 3-[4-[4-[[1-[(4-fluorophenyl)methyl]-1H-benzimidazol-2-yl]methyl]-1-piperidinyl]butyl]-2,4(1H,3H)-quinazolinedione]		0.63	0.08	
O=c1[nH]c2ccccc2c(=O)n1CCN1CCC(Cc2nc3ccccc3n2Cc2cscn2)CC1 [Compound 187]		0.31	0.04	
CN1C[C@H](CNC(=O)OCc2ccccc2)C[C@@H]2c3cccc4c3c(cn4C)C[C@H]21 [metergoline]	prevent completely			
Fc1ccc(Cn2c(CC3CCN(CCn4c(S)nc5cncnc54)CC3)nc3ccccc32)cc1 [Compound 495, 9-[2-[4-[[1-[(4-fluorophenyl)methyl]-1H-benzimidazol-2-yl]methyl]-1-piperidinyl]ethyl]-9H-purine-8-thiol]		0.16	0.04	
CNC(=S)NCCN1CCC(Cc2nc3ccccc3n2Cc2ccc(F)cc2)CC1 [Compound 428, N-[2-[4-[[1-[(4-fluorophenyl)methyl]-1H-benzimidazol-2-yl]methyl]-1-piperidinyl]ethyl]-N'-methylthiourea]		0.01	0.04	
CN1CCC(Cc2nc3ccccc3n2Cc2ccc(F)cc2)CC1 [Compound 82]		0.63	0.005	
Fc1ccc(Cn2c(CC3CCN(CCN4CCOCC4)CC3)nc3cccnc32)cc1 [Compound 124]		0.31	0.04	
Cc1cc(Cl)nc(NCCN2CCC(Cc3nc4ccccc4n3Cc3ccc(F)cc3)CC2)n1 [Compound 382, 4-chloro-N-[2-[4-[[1-[(4-fluorophenyl)methyl]-1H-benzimidazol-2-yl]methyl]-1-piperidinyl]ethyl]-6-methyl-2-pyrimidinamine]		0.63	0.08	
Fc1ccc(Cn2c(CC3CCN(C4CCN(c5ncccn5)CC4)CC3)nc3ccccc32)cc1 [Compound 347, 4-[[1-[(4-fluorophenyl)methyl]-1H-benzimidazol-2-yl]methyl]-1'-(2-pyrimidinyl)-[1,4'-bipiperidine]]		0.63	0.08	
Cn1cnc([N+](=O)[O-])c1N1CCC(N2CCC(Cc3nc4ccccc4n3Cc3ccc(F)cc3)CC2)CC1 [Compound 380, 4-[[1-[(4-fluorophenyl)methyl]-1H-benzimidazol-2-yl]methyl]-1'-(1-methyl-4-nitro-1H-imidazol-5-yl)-[1,4'-bipiperidine]]		0.63	0.31	
COc1ccc(CCN2CCC(Cc3nc4ccc(OC)cc4n3Cc3ccc(F)cc3)CC2)cc1 [Compound 273]		0.31	0.01	
Fc1ccc(Cn2c(CC3CCN(CCOc4ncccn4)CC3)nc3ccccc32)cc1 [Compound 391, 1-[(4-fluorophenyl)methyl]-2-[[1-[2-(2-pyrimidinyloxy)ethyl]-4-piperidinyl]methyl]-1H-benzimidazole]		0.02	0.02	
CCOCCN1CCC(Cc2nc3cccnc3n2Cc2ccc(F)cc2)CC1 [Compound 126]		0.63	0.04	
O=c1[nH]c2ccccc2n1CCCN1CCC(Cc2nc3ccccc3n2Cc2ccc(F)cc2)CC1 [Compound 207]			0.08	0.08
CCOCCN1CCC(Cc2nc3ccccc3n2Cc2ccc(F)cc2)CC1 [Compound 133]		0.16	0.02	
O=C(NCCN1CCC(Cc2nc3cccnc3n2Cc2ccc(F)cc2)CC1)c1ccoc1 [Compound 432]		0.31	0.04	
Nc1ccccc1C(=O)NCCN1CCC(Cc2nc3ccccc3n2Cc2ccc(F)cc2)CC1 [Compound 468, 2-amino-N-[2-[4-[[1-[(4-fluorophenyl)methyl]-1H-benzimidazol-2-yl]methyl]-1-piperidinyl]ethyl]benzamide]		0.63	0.02	
